Results as given in a melting point compilation (Tetko et al.; mined from patent text by program, amines drawn as free bases though some values may be those of a salt).

melting point [°C] | Structure (SMILES)
64 to 71 | CC(C)(C)NC(=O)C1CC(Cl)CN1C(=O)C(O)C(Cc1ccccc1)NC(=O)C(CC(N)=O)NC(=O)C(COC1CCCO1)NC(=O)OCc1ccccc1 (configuration not stated)
205 to 207 | O=C1c2ccccc2C(=O)N1CCc1ccc(OC2c3ccccc3CCc3ccccc32)cc1
166 to 168 | CC(=O)NC[C@H]1CN(c2ccc(N3CCC(F)(CI)CC3)c(F)c2)C(=O)O1
274 | O=c1[nH]cnc2c1ncn2CCO
145 | CCOC(=O)C1=C(N)NC(N)=C(C(=O)OCC)C1c1ccnc2ccccc12
175 to 176 | O=C(O)CCC(=NO)c1ccc(-c2ccc(Br)cc2)cc1
188 to 189 | COc1cc2ccccc2[nH]c1=O
138 to 140 | O=C(CNc1ccc(O)cc1)N1CCC(Cc2ccccc2)CC1
121 to 123 | CCCCCCCCCCCCCCOc1ccc(C(=O)O)cc1C(C)(C)C
88 to 90 | Cc1csc(N)c1S(=O)(=O)CC#N
328 to 330 | N#Cc1cccc(-c2nc(C(N)=O)c3[nH]c(=O)n(-c4ccccc4)c3n2)c1
100 | O=S(CBr)c1ccc(Cl)cc1 (configuration not stated)
198 to 202 | Cc1cc(F)ccc1-c1cc(N2CCSCC2)ncc1C(N)=O
65 to 66 | Ic1cccc(OCCCCCCOc2c(I)cc(I)cc2I)c1
50 to 52 | COc1cccc(CN2CCC(c3cc(-c4ccc(Cl)cc4)[nH]n3)CC2)c1
238 to 241 | COc1cc(Nc2c(C#N)cnc3cc(-c4coc(C=O)c4)c(OC)cc23)c(Cl)cc1Cl
178 to 179 | COC(=O)c1ccc([N+](=O)[O-])[nH]1
130 to 133 | CCOC(=O)C1[C@@H]2[C@@H](O)[C@@H]3O[C@H](c4ccc(F)cc4F)OC[C@H]3O[C@H]12 (some centres not stated)
158 to 159 | O=c1[nH]c(-c2ccccc2)c(-c2ccccc2)o1
140 to 142 | CC(C)c1c(O)cc(/C=C/c2ccccc2)cc1O
128 | C[C@H](CSC(=O)c1ccccc1)C(=O)N1C(=O)N(C)C[C@H]1C(=O)OC(C)(C)C
83 to 86 | Cc1cc2c(cc1C(F)(F)F)N(Cc1cccc(C(=O)O)c1)CCC[C@@H]2N(Cc1cc(C(F)(F)F)cc(C(F)(F)F)c1)c1nnn(C)n1
111 to 112 | CCN(CC)C(=O)n1cnc(Sc2c(C)cccc2C)n1
180 to 182 | Cn1nc(C(F)(F)F)c(CN2C(=O)C3(COc4cc5c(cc43)OCO5)c3ccccc32)c1Cl (configuration not stated)

melting point [°C] | Structure (SMILES)
158 to 160 | Cc1ccc(-c2c(C)ccn2-c2ccc(S(C)(=O)=O)cc2)cc1
95 to 97 | ClCc1ccc(Oc2ccc3ccc(Oc4ccc(CCl)cc4)cc3c2)cc1
229 to 231 | C[C@H]1CN(c2c(F)cc3c(=O)c(C(=O)O)cn(CCF)c3c2Cl)C[C@H]1NC(=O)OC(C)(C)C (relative stereo)
98 to 102 | Cc1cc(-n2cnc(CO)c2)ccc1C(C)C
205 | c1cc2cc(-c3nnn[nH]3)ccc2[nH]1
70 to 71 | N#CC(C#N)=C1N(CCCN2CCCC2)CCN1CCN1CCCC1
114 to 116 | C[C@@H](O)Cn1ccc2cc(F)c(F)cc21
69 to 72 | O=[N+]([O-])c1ccc(Oc2ccc(C(F)(F)F)cc2Cl)nc1
215 to 225 | COc1cc2c(cc1OC)CN(CCc1ccc(NC(=O)c3cccc4c(=O)c5cccc(OC)c5[nH]c34)cc1)C2
154 to 155 | CC1(C)CC(=C(c2ccc(O)cc2)c2ccc(OCCO)cc2)CC(C)(C)C1
185 to 190 | CC(C)Nc1nc2cc(C#N)ccc2[nH]1
75 to 79 | CC(C)C[C@H](NC(=O)COc1ccccc1)C(=O)N[C@@H](C(C)C)[C@H](O)c1c(-c2ccc(F)cc2)c1=O
239 to 241 | O=c1c(Oc2ccccc2)nc2ccccc2n1-c1ccc(Cl)cc1
201 to 203 | O=C(Cc1c(-c2ccccc2)c2cc(CN3CCN(c4ccccc4)CC3)c(Cl)cc2oc1=O)Nc1ccc(Cl)cc1C(F)(F)F
158 to 161 | Cc1ccc(Cl)cc1N1CCN(c2nc(=O)c3cc(C(F)(F)F)cc([N+](=O)[O-])c3s2)CC1
86 to 87 | C[Si](C)(C)CC(O)(Cn1cncn1)c1ccccc1 (configuration not stated)
259 to 260 | O=S(=O)(c1ccccc1)n1ccc2c(Cl)nc(-c3ccccc3)nc21
141 to 142 | COc1nc(Cl)nc2c1ncn2C1CC(O)C(CO)O1 (configuration not stated)
159 to 160 | CN(C)Cc1ccc(CNCCN2CCNC2=C(C#N)C#N)o1
205 to 206 | CCOC(=O)/C=C/c1cn(-c2ccc(C(F)(F)F)cc2)nc1OCc1ccc(OCc2nc(-c3ccccc3)oc2C)c(OC)c1
80 to 81 | c1cc2c3c(cccc3c1)NN=N2
146 to 148 | O=C(O)C(=O)c1c(F)c(F)c(OCCOc2ccc3ccccc3c2)c(F)c1F
27 to 28 | Cc1ccc(S(=O)(=O)OCCCCCCCl)cc1
159 to 160 | COc1ccc(-n2nnc(-c3ccc(Cl)cc3C(F)(F)F)c2N)cc1

melting point [°C] | Structure (SMILES)
89 | COC(=O)c1c(C)nc2ccccc2c1NCc1ccc(Br)cc1
174 to 176 | COc1ccc(Cl)cc1-c1cc(Cl)cc2c1OC(CN)C2 (configuration not stated)
168 | CC(=O)c1ccc(C2CCC(CC(=O)NC3CCN(Cc4ccc(Cl)c(Cl)c4)CC3)CC2)cc1 (configuration not stated)
282 to 284 | Cc1ccc(-c2c(C=O)n(C)c(=O)c3ncccc23)cc1
103 to 104 | CCn1cc(C=O)c(OCc2ccc(OCc3nc(-c4ccco4)oc3C)c(OC)c2)n1
167 to 168 | Cc1nc(-c2c(C)c(C#N)c3nc(C4CC4)oc3c2N2CC[C@H](N(C)C)C2)cs1
128 | CCC1c2cc(F)ccc2-c2ccccc2N1S(=O)(=O)c1ccc(OC(=O)CC(C)(C)C)cc1 (configuration not stated)
272 | Oc1nc2c([nH]1)CCCCC2
97 to 99 | Cc1ccc2c(NCc3ccc(NC(=O)C4CCN(Cc5ccc(F)c(F)c5)CC4)cc3)nc(N(C)C)nc2c1
153 to 157 | CCC(CC)(CC(=O)Nc1cccc(/C=C/c2nc(C3CC3)cs2)c1)C(=O)O
210 to 212 | COc1cc(OC)c(-c2cc3ccccc3[nH]2)cc1C=CC(=O)c1ccc(C(=O)O)cc1
148 to 149 | CC[C@@H]1O[C@](/C=C/C2CC2)(C(F)(F)F)c2cc(F)ccc2NC1=O (relative stereo)
170 | CCOC(=O)C1=C(CCN2C(=O)c3ccccc3C2=O)NC(CCN2C(=O)c3ccccc3C2=O)=C(C(=O)OCC)C1c1ccccc1Cl
160 | Cc1ccc(Oc2c(-c3ccc(S(C)(=O)=O)cc3)oc(C(F)F)cc2=O)cc1
140 to 142 | CO/C=C(/C(=O)OC)c1ccccc1Oc1nc(Cl)nnc1Cl
218 to 219 | O=C(O)c1ccc2c(c1)CCc1ccc(Br)cc1C2=O
138 | c1ccc(-c2noc3ccccc23)c(CNCc2ccccc2-c2noc3ccccc23)c1
131 to 132 | CCCc1c(S)ccc2c(C)c(CC(=O)OC)c(=O)oc12
133 to 134 | Cc1c(N)cccc1-c1cn(C)c(=O)c(Nc2ccc(C3C(=O)N(C)CCN3C)cc2)n1 (configuration not stated)
250 to 251 | CNC(=O)c1ccc(-c2coc3ccc(-c4nnc(C)o4)cc23)c(Cl)c1
231 to 233 | CC1=NN(C)C(=O)C1C(=O)Nc1ccccc1 (configuration not stated)
155 to 157 | CC(C)(C)OC(=O)Nc1ccc(N2CCNCC2)cc1
166 to 167 | COc1cc(N2C(=O)CCC2=O)ccc1OCCCN1CCN(c2ccccc2)CC1
201 to 203 | O=C(c1ccccc1)C(O)n1cncc1Cl (configuration not stated)

melting point [°C] | Structure (SMILES)
131 to 133 | COc1cc(S(=O)(=O)N2CCNCC2)cc(OC)c1OC
124 to 127 | O=C1c2ccccc2C(=O)N1CC#CCSc1nccc(NC(=S)NCC(F)(F)F)n1
160 | COc1ccc(OC)c(Nc2nc(-c3ccc(F)cc3)cs2)c1
274 to 278 | Nc1ncnc2c1c(-c1cc(F)c(O)c(F)c1)nn2Cc1oc2ccc(F)cc2c(=O)c1-c1cccc(F)c1
33 | Clc1nsnc1-c1ccccc1
90 to 93 | Cc1cc(=O)n(-c2cc(C(=O)OC(C)C)c(Cl)cc2F)c(=O)n1C(F)F
206 to 208 | CCOC(=O)C(C#N)=CNc1ccc(C=C(C#N)C(=O)OCC)o1
192 to 194 | Nc1sc(-c2ccccn2)c(CN(C2CCCCC2)C2CCCCC2)c1C(=O)c1ccc(Cl)cc1
139 to 141 | CC1c2cccc3c2N(CC3)c2ccccc2N1C(=O)CCN1CCN(c2ccccc2)CC1 (configuration not stated)
150 to 151 | Cc1ccc2c(c1)C=C(c1ccc(OCCN3CCCC3)cc1)S2=O (configuration not stated)
105 | CN[C@@H]1COc2ccc(Cl)c(-c3ccccc3Cl)c2O1
227 to 228 | CC(C)(C)C(NC(=O)COc1ccccc1)Nc1c(Nc2cccnc2)c(=O)c1=O (configuration not stated)
102 to 106 | CC(=O)Nc1cc(N)ccc1OCCCN
130 to 131 | COc1cc([N+](=O)[O-])ccc1NC(=O)OCc1ccccc1
250 to 254 | CC(=O)N1CCc2[nH]c3cc(-n4ccc(OCc5ccccc5)cc4=O)ccc3c2CC1
158 to 160 | CCCCNC(=O)Nc1cccc(-c2ccnc3c(C(=O)c4cccs4)cnn23)c1
176 to 177 | CC(C)(C)N1C(=O)c2cnc(-c3ccccc3)nc2N(C(=O)CCl)c2ccccc21
224 | CNC(=O)C(=Cc1cccc(-c2ccc(C)c(C)c2)c1)NC(C)=O
121 to 124 | Cc1nc(C)c2c(n1)CN=C(c1ccccc1)c1cc(Cl)ccc1-2
239 to 240 | Nc1nc(N)nc(-c2ccc(-c3ccccc3)c3ccccc23)n1
130 to 131 | CCOC(=O)Nc1sc(-c2ccc([N+](=O)[O-])cc2)c(C)c1C(=O)OCC

Structure (SMILES) | melting point [°C]
CC(Cc1c[nH]c2ccccc12)C1=CCNCC1 (configuration not stated) | 125
CN(C)CC(c1ccccc1)c1nnc2n1-c1ccc(Cl)cc1C(c1ccccc1)=NC2 (configuration not stated) | 168 to 170
Cc1cc(C)c(C(=O)P(=O)(Cc2ccccc2)c2ccccc2)c(C)c1 (configuration not stated) | 113 to 114
CN1CC2CCCCC2C1c1noc(=O)[nH]1 (configuration not stated) | 102 to 104
